In article PMC10550954, “A high throughput screen for pharmacological inhibitors of the carbohydrate response element” (Scientific Data, 2023) one finds IC50 data, which are given here for nine molecules.

Usually IC50 stands for the concentration that inhibits the measured activity by half.

In data set [1] the test system is ChoRE-LUC (ChoRE driven transcription). The data set can be described thus: ChoRE-LUC luciferase reporter assay in INS-1E ChoRE-LUC cells (BrightGlo, 24 h, 25 mM glucose). Type of data set: cell-based, Rat. The following applies: 24 h treatment, 25 mM glucose media, 2% FBS. Here is the method:
For ReFRAME library screening, 10 nL of 2 mM DMSO stock concentrations of compound were prespotted into 5 µL of assay medium (RPMI with 2% FBS, 10 mM HEPES, 1 mM sodium pyruvate, 25 mM D-glucose (Sigma), and 1% penicillin/streptomcycin) in white 384-well plates (Grenier) using an Echo Acoustic Liquid Handler instrument (Labcyte) before the addition of INS-1E ChoRE-LUC cells (5000 cells in 45 µL assay medium per well). Cells were incubated for 24 h before 30 µL of BrightGlo Luciferase Assay solution (diluted 1:3 in water, Promega) was added to each well and luminescence signal values were recorded with an Envision plate reader (PerkinElmer). This protocol was used as the ReFRAME library was supplied from off-site and necessitated pre-spotting for efficient transfer of materials. For the screening of all other libraries, which was performed in-house, INS-1E ChoRE-LUC cells were plated in a white 384-well plate (5000 cells in 50 µL assay medium per well) and incubated for 24 h. 100 nL of DMSO stock concentrations of compound were transferred to each well using a Bravo instrument with a pintool head (Agilent). Cells were incubated for 24 h before 30 µL of BrightGlo Luciferase Assay solution was added to each well and luminescence signal values were recorded with an Envision plate reader.
(§1) Reporter activity and cell viability data was normalized to the DMSO control wells in each plate. Ten or twelve dose-response points and three biological replicates were used to determine dose-response curves using the four-parameter inhibitor dose-response curve fitting function in Prism software (Graphpad). All graphed data are plotted as the mean and the s.e.m denoted with error bars.
To establish a reliable assay with a suitable dynamic range for high-throughput screening, we first optimized the composition of the DNA regulatory sequences within the ChoRE-LUC reporter. […] To determine whether this combination of regulatory elements was robust enough to test general ChoRE activity, we constructed six pGL4-based luciferase reporter plasmids with different numbers and/or combinations of ChoRE and FOXO sequences from the promoter of the human TXNIP gene (Fig. 3a). The wild-type (WT) sequence represents the intact minimal promoter of the TXNIP gene (GRCh38.p14, chr1:145,996,639–145,996,759). The six plasmids were transiently transfected into INS-1E cells using cationic lipid-based transfection reagents and the induction of luciferase after 24 h in 25 mM glucose containing media was compared (Fig. 3b). In addition, we tested various glucose concentrations in the assay media to determine the concentration that results in the highest stimulation. […] The WT ChoRE-LUC construct was then used to generate an INS-1E stable cell line (INS-1E ChoRE-LUC) for screening in 384-well plate format. For high-throughput screening, the treatment time, serum percentage in media, and cell count per well were optimized further. The final assay design consisted of 5,000 INS-1E ChoRE-LUC cells per well of a 384-well plate in 25 mM glucose media supplemented with 2% FBS and a compound treatment time of 24 h.

Data set [2] in a line: Cytotoxicity screening (CellTiterGlo cell viability) in INS-1E ChoRE-LUC cells. It counts as cell-based. The conditions noted are these: rat, 24 h treatment. Here is the method:
INS-1E ChoRE-LUC cells were plated in a white 384-well plate (5000 cells in 50 µL assay medium per well) and incubated for 24 h. 100 nL of DMSO stock concentrations of compound were transferred to each well using a Bravo instrument (Agilent) affixed with a pintool head (V&P Scientific). Cells were incubated for 24 h before 30 µL of CellTiterGlo Cell Viability Assay solution (diluted 1:6 in water, Promega) was added to each well and luminescence signal values were recorded with an Envision plate reader.
as §1

In a further data set the test system is TXNIP expression. Details: method as in PMID 28502980. The conditions noted are these: compared with the ChoRE-LUC IC50 of this paper; read-out: previously reported measurement (IC50); cited from earlier work.
[3] abbreviates: Rattus norvegicus, INS-1E, 24 h.

As for `CC[C@H](Nc1nc(NCc2cnc(C)cc2C)c2ncn(C(C)C)c2n1)[C@@H](C)O` [CYC065, reference compound], the IC50 in data set [1] (setting [3]) came to 0.58 µM. In data set [2], this molecule showed a 50% inhibitory concentration (IC50) at 24 h of 0.85 µM.
The like results for `O=C(NCc1ccco1)C(=Cc1ccc(Cl)c(Cl)c1)C(=O)NCc1ccco1` [Y070-0096] were, in that order, 1.37 µM and 3.98 µM.
As to `O=C(c1ccc(F)c(Cl)c1)N1CC2(CC(CCOCc3cccc(F)c3)CO2)C1` (stereo not shown) [SD60-0151], the IC50 in data set [1] (setting [3]) is 9.5 µM. In addition, the IC50 at 24 h in data set [2] is greater than 20 µM.
With `CCS(=O)(=O)Oc1ccc(CN(Cc2ccc(F)cc2)C(=O)/C=C/c2ccccc2)cc1` [V029-2992], the IC50 amounted to 2.9 µM in data set [1] and 2.85 µM in data set [1] (setting [3]). Also, the IC50 at 24 h in data set [2] is greater than 20 µM.
Take `FC(F)(F)c1ccc(CN2CCC(F)(c3noc(-c4ccncc4)n3)C2)cc1` (stereo not shown) [SC41-0173]: the IC50 in data set [1] (setting [3]) amounted to 8.25 µM. Further, in data set [2], the IC50 at 24 h is greater than 20 µM.
On the same counts, the results for `Cc1cc(C)cc(C(=O)N2CC3(CC(CCOCc4cccc(F)c4)CO3)C2)c1` (stereo not shown) [SD60-0149] are 10.6 µM and greater than 20 µM.
Consider `Fc1cc(Br)ccc1CN1CCC(F)(c2noc(-c3ccncc3)n2)C1` (stereo not shown) [SC41-0178], for which the IC50 in data set [1] (setting [3]) amounted to 9.83 µM. In data set [2], the IC50 at 24 h is greater than 20 µM.
The like results for `CCOC(=O)c1[nH]c2ccccc2c1NC(=O)/C=C/c1ccc(OC)c(OC)c1` [C175-0061] were, in that order, 1.11 µM and greater than 20 µM.
On to `CC(=O)c1ccc(OCCn2cnc3c(N)ncnc32)cc1` [W2476, reference compound], for which the IC50 in data set [1] was 1.33 µM; with TXNIP expression, 1.7 µM.
